These results are taken from the supplement of paper PMC11451515.

Each structure is given as a SMILES string.

Holding throughout (assay): AUC of viability dose-response curve (% viability x log10 dose units); higher = less sensitive
Holding throughout (settings): 48 h

The test system of one assay is NOMO1. In outline:
(§1)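 Viability of medium-adapted leukemia cells was measured by CellTiter-Glo One luminescence after 48 h at 37°C with library compounds in DMSO. Doses were 11 threefold steps from 47 μM to 0.79 nM, in 1536-well plates at 500 or 1000 cells/well. Signals were normalised per plate to DMSO and cell-free wells and fitted with a four-parameter log-logistic model on log10 dose. Area under the curve was integrated by trapezoidal rule, with curves exceeding full viability scaled and failed quality-control curves removed.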

A further assay relates to P12-Ichikawa. Put shortly:
as §1

A further assay relates to SEM cells. In outline: as §1
[1] abbreviates: RPMI 5 mM glucose + 10% dialyzed FBS.

Turning to `N=C(N)NC(=N)N1CCOCC1`, the “AUC of viability dose-response curve” value turned out to be 465 with NOMO1 (HPLM + 10% dialyzed FBS); 461 in the assay on NOMO1 (RPMI 5 mM glucose + 10% FBS); 447 with NOMO1 (setting [1]); 473 with P12-Ichikawa (HPLM + 10% dialyzed FBS); 454 with P12-Ichikawa (RPMI 5 mM glucose + 10% FBS); 463 in the assay on P12-Ichikawa (setting [1]). The figures for the “AUC of viability dose-response curve” value in the assay on SEM cells (HPLM + 10% dialyzed FBS), in the assay on SEM cells (RPMI 5 mM glucose + 10% FBS) and in the assay with SEM cells (setting [1]) were 472, 467 and 460, respectively.
Take `CC[C@@H]1C(=O)N(C)c2cnc(Nc3ccc(C(=O)NC4CCN(C)CC4)cc3OC)nc2N1C1CCCC1`: the “AUC of viability dose-response curve” value was determined as 259 in the assay on NOMO1 (HPLM + 10% dialyzed FBS); 240 in the assay on NOMO1 (RPMI 5 mM glucose + 10% FBS); 252 in the assay on NOMO1 (setting [1]); 187 with P12-Ichikawa (HPLM + 10% dialyzed FBS); 196 in the assay on P12-Ichikawa (RPMI 5 mM glucose + 10% FBS); 210 in the assay on P12-Ichikawa (setting [1]). In addition, the results for the “AUC of viability dose-response curve” value with SEM cells (HPLM + 10% dialyzed FBS), with SEM cells (RPMI 5 mM glucose + 10% FBS) and in the assay on SEM cells (setting [1]) were 205, 215 and 213, respectively.
For the molecule `N[C@@H](Cc1ccc(O)c(O)c1)C(=O)O`, the “AUC of viability dose-response curve” value amounted to 459 in the assay on NOMO1 (HPLM + 10% dialyzed FBS); 475 with NOMO1 (RPMI 5 mM glucose + 10% FBS); 456 in the assay on NOMO1 (setting [1]); 471 in the assay with P12-Ichikawa (HPLM + 10% dialyzed FBS); 454 in the assay with P12-Ichikawa (RPMI 5 mM glucose + 10% FBS); 466 with P12-Ichikawa (setting [1]). Further, the “AUC of viability dose-response curve” value in the assay on SEM cells (HPLM + 10% dialyzed FBS) came to 456; in the assay with SEM cells (RPMI 5 mM glucose + 10% FBS) it was 433; with SEM cells (setting [1]), 458.
With `Cc1ccc(/C=N/NC(=O)c2ccccc2Oc2ccccc2)o1`, the “AUC of viability dose-response curve” value is 456 in the assay on NOMO1 (HPLM + 10% dialyzed FBS); 418 in the assay on NOMO1 (RPMI 5 mM glucose + 10% FBS); 457 in the assay with NOMO1 (setting [1]); 452 in the assay with P12-Ichikawa (HPLM + 10% dialyzed FBS); 432 with P12-Ichikawa (RPMI 5 mM glucose + 10% FBS); 410 in the assay on P12-Ichikawa (setting [1]). The “AUC of viability dose-response curve” value was found to be 452 in the assay with SEM cells (HPLM + 10% dialyzed FBS), 468 in the assay on SEM cells (RPMI 5 mM glucose + 10% FBS) and 388 in the assay with SEM cells (setting [1]).
For the molecule `O=C1N\C=N/C2=C1C=N[NH]2`, the “AUC of viability dose-response curve” value with NOMO1 (HPLM + 10% dialyzed FBS) stood at 425; in the assay with NOMO1 (RPMI 5 mM glucose + 10% FBS), 421; in the assay with NOMO1 (setting [1]), 382; in the assay on P12-Ichikawa (HPLM + 10% dialyzed FBS) it was 393; in the assay on P12-Ichikawa (RPMI 5 mM glucose + 10% FBS), 397; in the assay on P12-Ichikawa (setting [1]) it was 398. In addition, the entries for the “AUC of viability dose-response curve” value with SEM cells (HPLM + 10% dialyzed FBS), in the assay on SEM cells (RPMI 5 mM glucose + 10% FBS) and in the assay on SEM cells (setting [1]) were 359, 350 and 384, respectively.
Regarding `COc1ccc2[nH]cc(CCNC(C)=O)c2c1`, the “AUC of viability dose-response curve” value in the assay with NOMO1 (HPLM + 10% dialyzed FBS) amounted to 474; in the assay on NOMO1 (RPMI 5 mM glucose + 10% FBS), 429; with NOMO1 (setting [1]) it was 462; with P12-Ichikawa (HPLM + 10% dialyzed FBS), 451; in the assay on P12-Ichikawa (RPMI 5 mM glucose + 10% FBS), 458; with P12-Ichikawa (setting [1]), 444. Moreover, the “AUC of viability dose-response curve” value was 472 in the assay with SEM cells (HPLM + 10% dialyzed FBS), 469 in the assay with SEM cells (RPMI 5 mM glucose + 10% FBS) and 446 in the assay with SEM cells (setting [1]).
As to `CC(C)n1cnc2c(NCCc3ccc(O)cc3)nc(-c3csc4ccccc34)nc21`, the “AUC of viability dose-response curve” value was 393 in the assay with NOMO1 (HPLM + 10% dialyzed FBS); 434 in the assay on NOMO1 (RPMI 5 mM glucose + 10% FBS); 433 with NOMO1 (setting [1]); 371 with P12-Ichikawa (HPLM + 10% dialyzed FBS); 428 in the assay with P12-Ichikawa (RPMI 5 mM glucose + 10% FBS); 422 in the assay with P12-Ichikawa (setting [1]). Moreover, the figures for the “AUC of viability dose-response curve” value with SEM cells (HPLM + 10% dialyzed FBS), in the assay with SEM cells (RPMI 5 mM glucose + 10% FBS) and with SEM cells (setting [1]) were 424, 396 and 388, respectively.
With `Cc1cnc(Nc2ccc(N3CCN(C)CC3)cc2)nc1Nc1cccc([S+](=O)([O-])NC(C)(C)C)c1`, the “AUC of viability dose-response curve” value with NOMO1 (HPLM + 10% dialyzed FBS) stood at 375; in the assay on NOMO1 (RPMI 5 mM glucose + 10% FBS), 411; in the assay on NOMO1 (setting [1]), 406; with P12-Ichikawa (HPLM + 10% dialyzed FBS), 400; in the assay on P12-Ichikawa (RPMI 5 mM glucose + 10% FBS), 390; in the assay with P12-Ichikawa (setting [1]) it was 400. Also, the entries for the “AUC of viability dose-response curve” value with SEM cells (HPLM + 10% dialyzed FBS), in the assay with SEM cells (RPMI 5 mM glucose + 10% FBS) and in the assay with SEM cells (setting [1]) were 311, 303 and 324, respectively.
`CCOC(=O)O[C@]1(C(=O)OCCl)CC[C@H]2[C@@H]3CCC4=CC(=O)C=C[C@]4(C)[C@H]3[C@@H](O)C[C@@]21C`: the “AUC of viability dose-response curve” value worked out at 459 in the assay with NOMO1 (HPLM + 10% dialyzed FBS); 427 in the assay with NOMO1 (RPMI 5 mM glucose + 10% FBS); 431 in the assay on NOMO1 (setting [1]); 467 with P12-Ichikawa (HPLM + 10% dialyzed FBS); 461 with P12-Ichikawa (RPMI 5 mM glucose + 10% FBS); 450 in the assay with P12-Ichikawa (setting [1]). Besides, the “AUC of viability dose-response curve” value with SEM cells (HPLM + 10% dialyzed FBS) came out at 460; in the assay with SEM cells (RPMI 5 mM glucose + 10% FBS) it was 429; in the assay with SEM cells (setting [1]), 430.
In the case of `CCCCCN(CCC12CC3CC(CC(C3)C1)C2)C(=O)NCCCc1ccncc1`, the “AUC of viability dose-response curve” value in the assay on NOMO1 (HPLM + 10% dialyzed FBS) stood at 454; in the assay with NOMO1 (RPMI 5 mM glucose + 10% FBS) it was 465; with NOMO1 (setting [1]) it was 467; with P12-Ichikawa (HPLM + 10% dialyzed FBS), 458; with P12-Ichikawa (RPMI 5 mM glucose + 10% FBS) it was 469; with P12-Ichikawa (setting [1]), 465. Further, the entries for the “AUC of viability dose-response curve” value in the assay on SEM cells (HPLM + 10% dialyzed FBS), in the assay on SEM cells (RPMI 5 mM glucose + 10% FBS) and with SEM cells (setting [1]) were 472, 463 and 466, respectively.
As for `Cc1c(C(=O)c2cccc3ccccc23)c2cccc3c2n1[C@H](CN1CCOCC1)CO3`, the “AUC of viability dose-response curve” value turned out to be 432 in the assay with NOMO1 (HPLM + 10% dialyzed FBS); 404 in the assay with NOMO1 (RPMI 5 mM glucose + 10% FBS); 394 in the assay with NOMO1 (setting [1]); 417 with P12-Ichikawa (HPLM + 10% dialyzed FBS); 366 in the assay on P12-Ichikawa (RPMI 5 mM glucose + 10% FBS); 397 with P12-Ichikawa (setting [1]). Also, the results for the “AUC of viability dose-response curve” value in the assay on SEM cells (HPLM + 10% dialyzed FBS), in the assay on SEM cells (RPMI 5 mM glucose + 10% FBS) and in the assay with SEM cells (setting [1]) were 372, 375 and 403, respectively.
